Results on 19 molecules are retold here after patent US11267814B2, “Compounds for bone growth” (OsteoQC Inc., priority 2013, dated 2022).

The target in series [1] is T1, sclerostin (Homo sapiens, UniProt Q9BQB4).
T1 construct: host or cells: human embryonic cells (reporter cells)
T1 sequence (Q9BQB4 24-213): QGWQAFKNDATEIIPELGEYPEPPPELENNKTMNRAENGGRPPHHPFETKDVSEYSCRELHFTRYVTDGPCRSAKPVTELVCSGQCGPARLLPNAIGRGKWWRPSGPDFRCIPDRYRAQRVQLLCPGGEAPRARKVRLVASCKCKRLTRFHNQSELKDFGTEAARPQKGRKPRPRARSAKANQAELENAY
Description: Modulation of sclerostin/Wnt activity (sclerostin inhibition assay): restoring Wnt3a signaling in the presence of sclerostin. Format: cell-based. To be noted: for Sclerostin Inhibition Assay; improvement over sclerostin alone.: IC100 class, Wnt3a signaling in human embryonic cells in presence of sclerostin.

Series [2] concerns MC3T3-E1 (mouse calvarial) osteoblast cells. Description: Rescue of sclerostin inhibition of mineralization (total calcium). The class given is cell-based. To be noted: calcium concentration; for IC100: Mus musculus, MC3T3-E1, read-out: Sclerostin Inhibition of Mineralization, improvement over sclerostin alone. The procedure:
Mineralization (crystalline calcium phosphate formation) represents an in vitro model of bone formation. […] Following the protocol described in Li et al., Compounds were assayed for their ability to rescue the inhibition of mineralization by sclerostin in MC3T3 osteoblast cells.

Series [3] relates to MC3T3 osteoblast cells. The experiment in a line: Osteocalcin (OCN) secretion, bone formation marker, ELISA. Format: cell-based, mouse. To be noted: for IC100: Mus musculus. Here is the method:
Bone formation can also be assayed in vitro or in vivo using a serum marker for bone formation, osteocalcin (OCN), available from Biomedical Tecnhnologies, Inc. (Stoughton, Mass.). Following the manufacturer's protocol for the mouse osteocalcin EIA kit (described at the website www.btiinc.com/page/cata2.html#mouse_osteocalcin), bone formation in MC3T3 osteoblast cells was assayed by measuring the concentration of OCN.

Series [4] concerns the target T2, hERG potassium channel (Homo sapiens, UniProt Q12809).
T2 construct: expressed in transfected cells; host or cells: CHO-K1
The experiment in a line: hERG automated patch clamp assay. Format: cell-based. To be noted: inhibition of hERG tail current, 5 minutes at room temperature, CHO-K1 cells stably expressing hERG. Here is the method:
One major type of cardiovascular toxicity associated with pharmaceutical drugs is caused by drug effects on cardiac ion channels like hERG. Drug-induced inhibition of hERG results in a prolonged QT interval, which can lead to a life-threatening ventricular arrhythmia. Therefore, the inhibitory effect of compounds described in Examples 1-46 on the hERG potassium channel was evaluated using an automated patch clamp assay as described in Mathes, C. (2006) Expert Opin. Ther. Targets, 10 (2): 319-327. CHO-K1 cells stably expressing hERG channels were used.

Where [5] appears, read: IC100 class, MC3T3 osteoblast cells treated with sclerostin.
Where [6] appears, read: IC100 class, OCN secreted from MC3T3 osteoblast cells treated with sclerostin.
Setting [7] is: MC3T3 osteoblast cells, result in words.

Counter-ions that a name gives are not always drawn.

T2 sequence (Q12809 whole entry): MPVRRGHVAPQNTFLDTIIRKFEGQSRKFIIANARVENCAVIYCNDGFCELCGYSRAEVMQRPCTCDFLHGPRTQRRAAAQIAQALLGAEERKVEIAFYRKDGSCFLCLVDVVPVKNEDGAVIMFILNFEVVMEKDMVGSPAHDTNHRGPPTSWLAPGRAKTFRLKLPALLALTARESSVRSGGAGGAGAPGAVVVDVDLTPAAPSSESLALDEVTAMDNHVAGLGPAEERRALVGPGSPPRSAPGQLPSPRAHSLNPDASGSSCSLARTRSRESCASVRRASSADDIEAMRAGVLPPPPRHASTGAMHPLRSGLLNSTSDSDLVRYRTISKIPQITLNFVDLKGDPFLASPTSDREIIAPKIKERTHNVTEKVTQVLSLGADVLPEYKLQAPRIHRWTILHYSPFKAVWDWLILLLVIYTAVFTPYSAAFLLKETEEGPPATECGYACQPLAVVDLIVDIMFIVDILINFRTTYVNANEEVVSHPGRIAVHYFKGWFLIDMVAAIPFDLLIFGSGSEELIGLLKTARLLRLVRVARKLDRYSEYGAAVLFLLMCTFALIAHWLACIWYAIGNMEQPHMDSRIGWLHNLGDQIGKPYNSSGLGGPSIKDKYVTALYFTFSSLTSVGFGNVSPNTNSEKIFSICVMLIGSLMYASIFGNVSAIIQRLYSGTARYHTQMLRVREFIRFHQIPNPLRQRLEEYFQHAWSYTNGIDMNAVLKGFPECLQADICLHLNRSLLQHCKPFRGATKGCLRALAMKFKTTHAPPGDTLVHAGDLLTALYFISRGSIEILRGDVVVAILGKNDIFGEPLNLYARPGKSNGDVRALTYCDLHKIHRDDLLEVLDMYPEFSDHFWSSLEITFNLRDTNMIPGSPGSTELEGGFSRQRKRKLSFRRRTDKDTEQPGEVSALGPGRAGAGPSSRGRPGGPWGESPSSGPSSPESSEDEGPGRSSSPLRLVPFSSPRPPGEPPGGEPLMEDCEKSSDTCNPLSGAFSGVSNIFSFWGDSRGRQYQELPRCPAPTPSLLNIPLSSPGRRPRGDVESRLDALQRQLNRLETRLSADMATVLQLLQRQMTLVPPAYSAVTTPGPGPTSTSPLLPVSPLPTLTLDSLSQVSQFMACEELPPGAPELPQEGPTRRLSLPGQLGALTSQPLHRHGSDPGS

Take `CC(Cn1c2ccccc2c2cccnc21)N(C)C` (stereo not drawn) [Example 1, N,N-dimethyl-1-(9H-pyrido[2,3-b]indol-9-yl)propan-2-amine]: in series [1], the “Sclerostin Inhibition Assay; improvement over sclerostin alone.” value was “+ (+ indicates an IC100 > 10 μM)”. Also, the IC100 in series [2] (setting [5]) and in series [3] (setting [6]) was greater than 10 µM throughout. Moreover, the “hERG (1uM)” value in series [4] was “+ (+ indicates less than 50% inhibition of hERG tail current)”.
Turning to `COc1ccc2c3ccnc(C)c3n(CC(C)N(C)C)c2c1` (stereo not drawn) [Example 3, 1-(7-methoxy-1-methyl-9H-pyrido[3,4-b]indol-9-yl)-N,N-dimethylpropan-2-aminium formate], the “Sclerostin Inhibition Assay; improvement over sclerostin alone.” value in series [1] is given as “++ (++ indicates an IC100 < 10 μM)”. The IC100 in series [2] (setting [5]) and in series [3] (setting [6]) was less than 10 µM in each case. Besides, in series [4], the “hERG (1uM)” value is reported as “+ (+ indicates less than 50% inhibition of hERG tail current)”.
Regarding `Cc1nccc2c3ccc(O)cc3n(CC(C)N(C)C)c12` (stereo not drawn) [Example 4, 9-(2-(dimethylamino)propyl)-1-methyl-9H-pyrido[3,4-b]indol-7-ol], the “Sclerostin Inhibition Assay; improvement over sclerostin alone.” value in series [1] is on record as “++ (++ indicates an IC100 < 10 μM)”. Further, the IC100 in series [2] (setting [5]) and in series [3] (setting [6]) was less than 10 µM each time. The “hERG (1uM)” value in series [4] was “+ (+ indicates less than 50% inhibition of hERG tail current)”.
`COc1ccc2c3ccnc(C(F)(F)F)c3n(CC(C)N3CCOCC3)c2c1` (stereo not drawn) [Example 28, 4-(1-(7-methoxy-1-(trifluoromethyl)-9H-pyrido[3,4-b]indol-9-yl)propan-2-yl)morpholine]: the “Sclerostin Inhibition Assay; improvement over sclerostin alone.” value in series [1] is on record as “++ (++ indicates an IC100 < 10 μM)”. Also, the IC100 in series [2] (setting [5]) and in series [3] (setting [6]) was less than 10 µM in each case.
With `COc1ccc2c3ccnc(C(F)(F)F)c3n(CCN3CCOCC3C)c2c1` (stereo not drawn) [Example 29, 4-(2-(7-methoxy-1-(trifluoromethyl)-9H-pyrido[3,4-b]indol-9-yl)ethyl)-3-methylmorpholine], the “Sclerostin Inhibition Assay; improvement over sclerostin alone.” value in series [1] is “++ (++ indicates an IC100 < 10 μM)”. The IC100 in series [2] (setting [5]) and in series [3] (setting [6]) was less than 10 µM in each case.
Consider `CC1COCCN1CCn1c2cc(O)ccc2c2ccnc(C(F)(F)F)c21` (stereo not drawn) [Example 30, 9-(2-(3-methylmorpholino)ethyl)-1-(trifluoromethyl)-9H-pyrido[3,4-b] indol-7-ol], for which, in series [1], the “Sclerostin Inhibition Assay; improvement over sclerostin alone.” value is “++ (++ indicates an IC100 < 10 μM)”. Further, the IC100 in series [2] (setting [5]) and in series [3] (setting [6]) was less than 10 µM throughout.
In the case of `CC1CN(CCn2c3cc(O)ccc3c3ccnc(C(F)(F)F)c32)CC(C)O1` (stereo not drawn) [Example 31, 9-(2-(2,6-dimethylmorpholino)ethyl)-1-(trifluoromethyl)-9H-pyrido[3,4-b]indol-7-ol], in series [1], the “Sclerostin Inhibition Assay; improvement over sclerostin alone.” value is listed as “++ (++ indicates an IC100 < 10 μM)”. The IC100 in series [2] (setting [5]) and in series [3] (setting [6]) was less than 10 µM in each case.
`COc1ccc2c3ccnc(C(F)(F)F)c3n(CCN3CCCCC3)c2c1` [Example 33, 7-methoxy-9-(2-(piperidin-1-yl)ethyl)-1-(trifluoromethyl)-9H-pyrido[3,4-b]indole]: the “Sclerostin Inhibition Assay; improvement over sclerostin alone.” value in series [1] is reported as “++ (++ indicates an IC100 < 10 μM)”. In addition, the IC100 in series [2] (setting [5]) and in series [3] (setting [6]) was less than 10 µM each time.
Take `COc1ccc2c3ccnc(C(F)(F)F)c3n(CCNCCO)c2c1` [Example 34, 2-((2-(7-methoxy-1-(trifluoromethyl)-9H-pyrido[3,4-b]indol-9-yl)ethyl)amino)ethanol]: in series [1], the “Sclerostin Inhibition Assay; improvement over sclerostin alone.” value is listed as “++ (++ indicates an IC100 < 10 μM)”. Besides, the IC100 in series [2] (setting [5]) and in series [3] (setting [6]) was less than 10 µM throughout.
For the molecule `OCCN(CCO)CCn1c2cc(O)ccc2c2ccnc(C(F)(F)F)c21` [Example 36, 2,2′-((2-(7-hydroxy-1-(trifluoromethyl)-9H-pyrido[3,4-b]indol-9-yl)ethyl)azanediyl)diethanol], in series [1], the “Sclerostin Inhibition Assay; improvement over sclerostin alone.” value is “+ (+ indicates an IC100 > 10 μM)”. Moreover, the IC100 in series [2] (setting [5]) and in series [3] (setting [6]) was greater than 10 µM in each case.
Take `COc1ccc2c(c1)[nH]c1c(C)nc(F)cc12` [Example 38, 3-fluoro-7-methoxy-1-methyl-9H-pyrido[3,4-b]indole]: the “Sclerostin Inhibition Assay; improvement over sclerostin alone.” value in series [1] is listed as “++ (++ indicates an IC100 < 10 μM)”. For the same molecule, the IC100 in series [2] (setting [5]) and in series [3] (setting [6]) was less than 10 µM in each case.
Take `COc1ccc2c3cc(F)nc(C)c3n(CCN3CCCCC3)c2c1` [Example 39, 3-fluoro-7-methoxy-1-methyl-9-(2-(piperidin-1-yl)ethyl)-9H-pyrido[3,4-b]indole]: the “Sclerostin Inhibition Assay; improvement over sclerostin alone.” value in series [1] is on record as “++ (++ indicates an IC100 < 10 μM)”. Moreover, the IC100 in series [2] (setting [5]) and in series [3] (setting [6]) was less than 10 µM throughout.
In the case of `COc1ccc2c(c1)[nH]c1c(C)cncc12` [Example 41, 7-methoxy-4-methyl-5H-pyrido[4,3-b]indole], the “Sclerostin Inhibition Assay; improvement over sclerostin alone.” value in series [1] is reported as “+ (+ indicates an IC100 > 10 μM)”. For the same molecule, the IC100 in series [2] (setting [5]) and in series [3] (setting [6]) was greater than 10 µM throughout.
On to `Cc1nccc2c1[nH]c1cc(OC3CC3)ccc12` [Example 42, 7-cyclopropoxy-1-methyl-9H-pyrido[3,4-b]indole], for which, in series [1], the “Sclerostin Inhibition Assay; improvement over sclerostin alone.” value is given as “+ (+ indicates an IC100 > 10 μM)”. Besides, the IC100 in series [2] (setting [5]) and in series [3] (setting [6]) was greater than 10 µM each time.
As to `Cc1nccc2c1[nH]c1cc(OC(C)(F)F)ccc12` [Example 43, 7-(1,1-difluoroethoxy)-1-methyl-9H-pyrido[3,4-b]indole], the “Sclerostin Inhibition Assay; improvement over sclerostin alone.” value in series [1] was “++ (++ indicates an IC100 < 10 μM)”. The IC100 in series [2] (setting [5]) and in series [3] (setting [6]) was less than 10 µM in each case.
For `Cc1nccc2c1[nH]c1cc(Cl)ccc12` [Example 44, 7-chloro-1-methyl-9H-pyrido[3,4-b]indole], in series [1], the “Sclerostin Inhibition Assay; improvement over sclerostin alone.” value is recorded as “++ (++ indicates an IC100 < 10 μM)”. The IC100 in series [2] (setting [5]) and in series [3] (setting [6]) was less than 10 µM in each case.
Consider `Cc1nccc2c1[nH]c1cc(OC(F)F)ccc12` [Example 45, 7-(difluoromethoxy)-1-methyl-9H-pyrido[3,4-b]indole], for which the “Sclerostin Inhibition Assay; improvement over sclerostin alone.” value in series [1] is recorded as “++ (++ indicates an IC100 < 10 μM)”. Moreover, the IC100 in series [2] (setting [5]) and in series [3] (setting [6]) was less than 10 µM in each case.
For `Cc1nccc2c1[nH]c1cc(OCC3CC3)ccc12` [Example 46, 7-(cyclopropylmethoxy)-1-methyl-9H-pyrido[3,4-b]indole], the “Sclerostin Inhibition Assay; improvement over sclerostin alone.” value in series [1] is recorded as “++ (++ indicates an IC100 < 10 μM)”. In addition, the IC100 in series [2] (setting [5]) and in series [3] (setting [6]) was less than 10 µM throughout.
On to “sclerostin protein: SOST (Sclerostin) protein; antagonizes Wnt3a signaling and inhibits mineralization and OCN secretion in the assays”, for which the “Sclerostin Inhibition Assay; improvement over sclerostin alone.” value in series [1] is “−”. Further, the “effect on Wnt3a signaling” value in series [1] (human embryonic cells, result in words) was “antagonized Wnt3a signaling”. Also, the “Sclerostin Inhibition of Mineralization; improvement over sclerostin alone.” value in series [2] (setting [5]) is listed as “−”. The effect on mineralization entry in series [2] (setting [7]) is recorded as “significant decrease in mineralization”. In addition, in series [3] (setting [6]), the “OSTEOCALCIN (Bone Formation Marker)” value was “−”. Also, the “effect on OCN secretion” value in series [3] (setting [7]) is on record as “nearly complete loss of OCN secretion”.
